Source: the supplement of paper PMC10307832

Legend:
Assay in all cases: relative viability (nuclei count vs DMSO), 5 days (fraction); higher = more cells survive
[1] = compound: C[C@]1(c2nc3c(C(N)=O)cccc3[nH]2)CCCN1 [Veliparib] + COc1cccc2cc(-c3nc([C@H]4CC[C@H](C(=O)O)CC4)n4ncnc(N)c34)[nH]c12 [OSI-027] (partner 0.5 µM)
Method in brief: (§1)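 Lung cancer cell lines were pin-tool dosed in 1536-well plates on the day after seeding, with either a lone drug or a fixed anchor-drug dose plus five library-drug doses (not always all listed) in √10 steps. Nuclei were counted on 4× images after 5 days. Relative viability is the ratio of treated-well to vehicle-well nuclei counts, with each value a median of duplicate plates.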

[2] = compound: C[C@]1(c2nc3c(C(N)=O)cccc3[nH]2)CCCN1 [Veliparib] + O=C(CCCCCCC(=O)Nc1ccccc1)NO [Vorinostat] (partner 1 µM)
Method in brief: as §1

[3] = compound: C[C@]1(c2nc3c(C(N)=O)cccc3[nH]2)CCCN1 [Veliparib] + Cc1nc(NC(=O)N2CCC[C@H]2C(N)=O)sc1-c1ccnc(C(C)(C)C(F)(F)F)c1 [Alpelisib] (partner 2 µM)
Method in brief: as §1

[4] = compound: C[C@]1(c2nc3c(C(N)=O)cccc3[nH]2)CCCN1 [Veliparib] + C[C@]1(O)C[C@@H](c2nc(-c3ccc4ccc(-c5ccccc5)nc4c3)c3c(N)nccn32)C1 [Linsitinib] (partner 1 µM)
Method in brief: as §1

Row | Cell Line | relative viability ([1]; first compound 0.02 µM) | relative viability ([1]; first compound 0.06325 µM) | relative viability ([1]; first compound 0.2 µM) | relative viability ([1]; first compound 0.6325 µM) | relative viability ([1]; first compound 2 µM) | relative viability ([2]; first compound 0.02 µM) | relative viability ([2]; first compound 0.06325 µM) | relative viability ([2]; first compound 0.2 µM) | relative viability ([2]; first compound 0.6325 µM) | relative viability ([2]; first compound 2 µM) | relative viability ([3]; first compound 0.02 µM) | relative viability ([3]; first compound 0.06325 µM) | relative viability ([3]; first compound 0.2 µM) | relative viability ([3]; first compound 0.6325 µM) | relative viability ([3]; first compound 2 µM) | relative viability ([4]; first compound 0.02 µM) | relative viability ([4]; first compound 0.06325 µM) | relative viability ([4]; first compound 0.2 µM) | relative viability ([4]; first compound 0.6325 µM) | relative viability ([4]; first compound 2 µM)
1 | NCI-H2342 | 0.586 | 0.558 | 0.649 | 0.687 | 0.572 | 0.787 | 0.718 | 0.732 | 0.714 | 0.703 |  |  |  |  |  |  |  |  |  | 
2 | HOP-62 | 0.756 | 0.734 | 0.798 | 0.792 | 0.761 | 0.557 | 0.527 | 0.593 | 0.539 | 0.68 | 1.11 | 0.928 | 1.15 | 0.836 | 0.785 | 1 | 0.923 | 0.738 | 0.987 | 0.983
3 | BEN | 0.288 | 0.315 | 0.294 | 0.296 | 0.3 | 0.544 | 0.615 | 0.62 | 0.614 | 0.593 | 0.925 | 0.982 | 1.2 | 0.992 | 1.05 | 0.803 | 0.875 | 1.15 | 0.928 | 0.946
4 | NCI-H647 | 0.662 | 0.479 | 0.618 | 0.605 | 0.648 | 0.584 | 0.606 | 0.385 | 0.366 | 0.427 | 1.38 | 1.07 | 1.42 | 1.22 | 1.11 | 1.09 | 1.01 | 0.989 | 1.02 | 1.09
5 | NCI-H2085 |  | 0.721 | 0.629 | 0.713 | 0.675 | 0.601 | 0.778 | 0.753 | 0.763 | 0.756 | 1.07 | 0.977 | 0.843 | 0.875 | 0.966 | 0.929 | 0.871 | 0.854 | 0.779 | 0.965
6 | NCI-H2347 | 0.416 | 0.377 | 0.473 | 0.206 | 0.347 | 0.716 | 0.545 | 0.561 | 0.616 | 0.637 | 1.01 | 0.946 | 1.01 | 0.957 | 1.02 | 0.999 | 0.831 | 0.912 | 0.896 | 0.947
7 | NCI-H2228 | 0.529 | 0.569 | 0.56 | 0.486 | 0.551 | 0.585 | 0.734 | 0.585 | 0.455 | 0.469 | 0.818 | 0.688 | 0.832 | 0.623 | 0.678 | 0.552 | 0.601 | 0.681 | 0.572 | 0.726
8 | NCI-H2009 | 0.63 | 0.645 | 0.672 | 0.586 | 0.672 | 0.771 | 0.65 | 0.709 | 0.708 | 0.795 | 1.19 | 0.994 | 1.17 | 1.15 | 1.23 | 1.27 | 1.17 | 1.16 | 1.14 | 1.22
9 | IA-LM |  |  |  |  |  | 0.925 | 0.906 | 0.888 | 0.789 | 0.969 | 0.796 | 0.764 | 0.684 | 0.503 | 0.968 | 0.411 | 0.494 | 0.538 | 0.544 | 0.708
10 | NCI-H358 | 0.496 | 0.715 | 0.796 | 0.611 | 0.698 | 0.728 | 0.661 | 0.877 | 0.669 | 0.76 |  | 0.763 | 0.953 | 0.775 | 1.01 |  | 0.815 | 0.775 | 0.667 | 0.772
11 | SK-LU-1 | 0.388 | 0.316 | 0.381 | 0.307 | 0.343 | 0.946 | 0.837 | 0.906 | 0.722 | 0.754 | 1.12 | 0.943 | 1.12 | 0.927 | 1.19 | 1.2 | 1.01 | 1.17 | 1.06 | 1.17
12 | LCLC-97TM1 | 0.51 | 0.5 | 0.505 | 0.433 | 0.587 | 0.455 | 0.797 | 0.849 | 0.632 | 0.637 | 0.263 | 0.271 | 0.258 |  | 0.232 | 0.185 | 0.187 | 0.194 |  | 0.25
13 | NCI-H322M |  | 0.48 | 0.526 | 0.557 | 0.482 |  | 0.873 | 0.899 | 0.976 | 0.717 | 0.763 | 0.719 | 0.78 | 0.7 | 0.772 | 1.03 | 0.864 | 0.885 | 0.826 | 0.972
14 | NCI-H1623 | 0.384 | 0.362 | 0.425 | 0.42 | 0.431 |  |  |  |  |  |  |  |  |  |  |  |  |  |  | 
15 | EMC-BAC-2 | 0.346 | 0.318 | 0.379 | 0.349 | 0.345 | 0.606 |  | 0.646 | 0.638 | 0.493 | 0.783 | 0.746 | 0.74 | 0.682 | 0.739 | 0.841 | 0.801 | 0.886 | 0.793 | 0.828
16 | NCI-H1355 |  | 0.323 | 0.448 | 0.357 | 0.355 | 0.44 | 0.528 | 0.638 | 0.626 | 0.596 |  | 0.739 | 0.846 | 0.692 | 0.816 |  | 0.746 | 0.832 | 0.76 | 0.849
17 | Calu-6 |  |  |  |  |  |  |  |  |  |  | 1.15 | 0.909 | 1.01 | 0.988 | 1.02 | 0.582 | 0.826 | 0.999 | 0.963 | 0.987
18 | NCI-H661 | 0.751 | 0.704 | 0.743 | 0.669 | 0.657 | 0.815 | 0.807 | 0.713 | 0.697 | 0.76 | 0.361 | 0.581 | 0.653 | 0.701 | 0.699 | 0.4 | 0.59 | 0.604 | 0.496 | 0.666
19 | NCI-H1975 | 0.715 | 0.674 | 0.676 | 0.677 | 0.68 | 0.771 | 0.688 | 0.698 | 0.639 | 0.659 | 0.64 | 0.657 | 0.685 | 0.605 | 0.632 | 0.933 | 0.951 | 1.03 | 0.88 | 0.931
